Measured values published in patent publication US6750058B1, “Transfecting peptide vector, composition containing same and applications” (Commissariat a l'Energie Atomique, priority 1997, dated 2004).

Columns and labels:
HeLa cells = experiment: Transfection of HeLa cells with luciferase plasmid pGL3, light emission in cell lysates; type: cell-based; settings: for RLU (luciferase light emission): DNA 1.5 μg; for transfection (in words): summary of Table II
Description: The HeLa cells are cultured at 37° C. in an EMEM medium supplemented with 10% foetal calf serum under an atmosphere containing 5% CO2.
1.5 to 12 μg of peptide I in 50 μl of dilution buffer (20 mM Tris, pH 7.4, 150 mM NaCl) are incubated with 1.5 μg of plasmid pGL3 in 250 μl of EMEM medium for 15 to 30 min at room temperature.
The mixture of DOTAP or of DOSPER with 1.5 μg of plasmid pGL3 is prepared according to the manufacturer's instructions (Boehringer). For the studies of the effect of the peptide on transfection in the presence of liposomes, portions of peptides are mixed with DOTAP or DOSPER in the dilution buffer defined above for 15 to 30 min at room temperature, and then 1.5 μg of plasmid pGL3 are added and incubated for 15 min at room temperature.
The transfections are carried out in plates comprising 24 wells (Beckton Dickinson) with 1.5×10^5 cells/well (confluence of about 50%) for 1 h at 37° C. After 24 h, the light emission is measured in the cell lysates with the Promega Luciferase Assay System test.

Human erythrocytes = experiment: Haemolytic test; type: cell-based; settings: 6 μg of peptide I, 10^6 erythrocytes, 37° C.
Description: Human erythrocytes are washed 3 times with PBS buffer. 10^6 erythrocytes are incubated with 6 μg of peptide I for various periods of time at 37° C. After centrifugation at 10,000 g for 5 min, the optical density of the supernatant is measured at 540 nm.

Compound	RLU (luciferase light emission) (HeLa cells; Table II, peptide 3-12 μg)	transfection (in words) (HeLa cells)	RLU (luciferase light emission) (HeLa cells; Table II, peptide 9 μg)	RLU (luciferase light emission) (HeLa cells; Table II, peptide 12 μg)	further results
AKRARLSTSFNPVYPYEDES [Peptide IA]	1 RLU/10 s/10^5 cells × 10^3	no transfection	–	–	–
CC(C)C[C@H](NC(=O)[C@H](CCCNC(=N)N)NC(=O)[C@H](C)NC(=O)[C@H](CCCNC(=N)N)NC(=O)[C@H](CCCCN)NC(=O)[C@H](C)N)C(=O)N[C@@H](CO)C(=O)N[C@H](C(=O)N[C@@H](CO)C(=O)N[C@@H](Cc1ccccc1)C(=O)N[C@@H](CC(N)=O)C(=O)N1CCC[C@H]1C(=O)N[C@H](C(=O)N[C@@H](Cc1ccc(O)cc1)C(=O)N1CCC[C@H]1C(=O)N[C@@H](Cc1ccc(O)cc1)C(=O)N[C@@H](CCC(=O)O)C(=O)N[C@@H](CC(=O)O)C(=O)N[C@@H](CCC(=O)O)C(=O)N[C@@H](CO)C(=O)N[C@@H](CCCCN)C(=O)N[C@@H](CCCCN)C(=O)N[C@@H](CCCCN)C(=O)N[C@@H](CCCCN)C(=O)N[C@@H](CCCCN)C(=O)N[C@@H](CCCCN)C(=O)N[C@@H](CCCCN)C(=O)N[C@@H](CCCCN)C(=O)N[C@@H](CCCCN)C(=O)N[C@@H](CCCCN)C(=O)N[C@@H](CCCCN)C(=O)N[C@@H](CCCCN)C(=O)N[C@@H](CCCCN)C(=O)N[C@@H](CCCCN)C(=O)N[C@@H](CCCCN)C(=O)N[C@@H](CCCCN)C(=O)N[C@@H](CCCCN)C(=O)N[C@@H](CCCCN)C(=O)N[C@@H](CCCCN)C(=O)N[C@@H](CCCCN)C(=O)O)C(C)C)[C@@H](C)O [Peptide I, AKRARLSTSFNPVYPYEDES - K20]	–	–	–	–	haemolytic test result (Human erythrocytes): negative results
AKRARLSTSFNPVYPYEDES - K10 [Peptide IC]	–	–	2870 RLU/10 s/10^5 cells × 10^3	1330 RLU/10 s/10^5 cells × 10^3	RLU (luciferase light emission) (HeLa cells; Table II, peptide 3.6 μg): 1 RLU/10 s/10^5 cells × 10^3; effect of reduced number of lysines in the polylysine polymer on transfection efficiency (HeLa cells; can be compensated for by increasing the quantity of peptide): modest negative effect
A K R A R L S T S E D E S-K10 (AKRARLSTSEDESKKKKKKKKKK) [Peptide IE]	–	–	110 RLU/10 s/10^5 cells × 10^3	330 RLU/10 s/10^5 cells × 10^3	RLU (luciferase light emission) (HeLa cells; Table II, peptide 3 μg): 1 RLU/10 s/10^5 cells × 10^3; RLU (luciferase light emission) (HeLa cells; Table II, peptide 6 μg): 10 RLU/10 s/10^5 cells × 10^3; times less efficient than peptide IC (HeLa cells; transfection efficiency, Table II): approximately 30 times
L S T S F N P V Y P Y E D E S-K20 [Peptide ID]	1 RLU/10 s/10^5 cells × 10^3	no transfection	–	–	attaching and condensing the DNA and entering into the cell (HeLa cells): still capable of attaching and condensing the DNA and of entering into the cell; transport of the DNA into the nucleus (HeLa cells): incapable of transporting this DNA into the nucleus
